Results published in PMC5840262, “Design, Synthesis and Evaluation of Branched RRWQWR-Based Peptides as Antibacterial Agents Against Clinically Relevant Gram-Positive and Gram-Negative Pathogens” (Frontiers in Microbiology, 2018).
Converted amounts (≈) assume the structure as drawn. Where two headings read alike, the source gives them in different places. Bridge positions count the residues as written; N and C are the ends. Square brackets hold non-standard residues; d marks the D form. Ends that are not written are not given here. Peptide text beside a SMILES is read from it. I, II: the chains in the order shown. Ahx = NCCCCCC(=O)O

Tests used:
[1] = test system: Enterococcus faecium clinical isolate 550; format: cell-based
Procedure: (§1) For the clinical isolates, we used 20 different isolates from the Public Health Reference Laboratory collection of the Secretaría de Salud del Distrito (SdSD; Bogotá, Colombia). The samples were collected from June to December 2016. For each isolate, the patient parameters (age, gender and location) and the culture site were recorded for epidemiologic monitoring (Table 1). All isolates had been previously tested for antibiotic sensitivity at the Public Health Microbiology Laboratory using either the Phoenix™ system (Gram-positive) or the VITEK 2 system (Gram-negative).
(§2) We screened all five peptides against the ATCC reference strains and the clinical isolates according to Method M7-A7 of the National Committee for Clinical Laboratory Standards (CLSI, [2007]). The MIC50 and MBC values were determined using a broth microdilution and growth inhibition method previously reported by Leon-Calvijo et al. ([2015]), with some modifications (Wiegand et al., [2008]). Briefly, the MIC50 experiments comprised a liquid-inhibition growth assay in a sterile, untreated, 96-well flat-bottom tissue culture plate. The bacteria were cultured overnight n Mueller Hinton agar; three colonies were transferred to 8 mL of Mueller Hilton broth and incubated at 37°C until the mid-exponential phase of growth. The turbidity of the cultures was measured and adjusted spectrophotometrically to a McFarland standard of 0.5, and then diluted to a final concentration of 5 × 10^7 colony forming units (CFU) per well. Stock solutions (2,000 μM) of each test peptide were serially diluted to final concentrations (per well) of 200, 100, 50, 25, 12.5, and 6.25 μM. Each concentration was evaluated in duplicate and each assay was performed in triplicate.
(§3) Wells containing Mueller Hilton broth with bacterial inoculum only served as bacterial-growth controls. Additional controls included Mueller Hilton broth alone (as blank) and Mueller Hilton broth with ciprofloxacin (2 μg/mL; as positive control). The microplate was incubated for 24 h at 37°C, and growth inhibition was measured by monitoring the optical density at 620 nm (OD620). The MIC50 was defined as the peptide concentration at which bacterial growth was inhibited by 50%.
(§4) To determine the MBC, an aliquot from each well of the MIC50 assay was spread onto Mueller Hilton agar. After 18 h at 37°C, the concentration that inhibited bacterial growth was determined. Each of these tests was performed four times. MBC was defined as the lowest concentration of peptide at which the number of bacteria was reduced by 99.9% in vitro (European Committee for Antimicrobial Susceptibility Testing, [2000]).

[2] = test system: Enterococcus faecium clinical isolate 1,462; format: cell-based
Procedure: as §1, §2, §3, §4

[3] = test system: Staphylococcus aureus clinical isolate 48,577; format: cell-based
Procedure: as §1, §2, §3, §4

[4] = test system: Klebsiella pneumoniae clinical isolate 51,048; format: cell-based
Procedure: as §1, §2, §3, §4

[5] = test system: Enterococcus faecium clinical isolate 1,225; format: cell-based
Procedure: as §1, §2, §3, §4

[6] = test system: Staphylococcus aureus clinical isolate 48,575; format: cell-based
Procedure: as §1, §2, §3, §4

[7] = test system: Enterococcus faecium clinical isolate 1,461; format: cell-based
Procedure: as §1, §2, §3, §4

[8] = test system: Klebsiella pneumoniae clinical isolate 50,181; format: cell-based
Procedure: as §1, §2, §3, §4

[9] = test system: Pseudomonas aeruginosa clinical isolate 48,221; format: cell-based
Procedure: as §1, §2, §3, §4

[10] = test system: Staphylococcus aureus clinical isolate 43,337; format: cell-based
Procedure: as §1, §2, §3, §4

[11] = test system: Klebsiella pneumoniae clinical isolate 50,424; format: cell-based
Procedure: as §1, §2, §3, §4

[12] = test system: Staphylococcus aureus clinical isolate 52,013; format: cell-based
Procedure: as §1, §2, §3, §4

[13] = test system: Staphylococcus aureus clinical isolate 43,062; format: cell-based
Procedure: as §1, §2, §3, §4

[14] = test system: Pseudomonas aeruginosa clinical isolate 48,220; format: cell-based
Procedure: as §1, §2, §3, §4

[15] = test system: Pseudomonas aeruginosa clinical isolate 48,526; format: cell-based
Procedure: as §1, §2, §3, §4

[16] = test system: clinical isolates of Gram-negative bacteria (Klebsiella pneumoniae, Pseudomonas aeruginosa); experiment: Therapeutic index, Gram-negative clinical isolates
Text: We determined the therapeutic index of each peptide, which we defined as the ratio of Maximum Hemolytic Activity (Hmax) to MIC50 (Hmax/MIC50).
The results are shown in Table 7 (Gram-positive) and Table 8 (Gram-negative). Regarding the Gram-positive bacteria, the palindromic, dimeric and tetrameric peptides were active chiefly against S. aureus. This trend was consistent with results of the experiments on the ATCC strains, in which these peptides were only active against the sensitive strain of the […] bacteria.

## RRWQWR-NH2 [LfcinB (20–25), reference compound]
[1]; E. faecium isolate 550, broth microdilution, 24 h 37°C, OD620, 50% growth inhibition
  MIC50: >100 µM
[1]; E. faecium isolate 550, plated on agar 18 h 37°C, 99.9% reduction
  MBC: >100 µM
[2]; E. faecium isolate 1,462, broth microdilution, 24 h 37°C, OD620, 50% growth inhibition
  MIC50: >100 µM
[2]; E. faecium isolate 1,462, plated on agar 18 h 37°C, 99.9% reduction
  MBC: >100 µM
[3]; S. aureus isolate 48,577, broth microdilution, 24 h 37°C, OD620, 50% growth inhibition
  MIC50: 3.7 µM
[3]; S. aureus isolate 48,577, plated on agar 18 h 37°C, 99.9% reduction
  MBC: >100 µM
[4]; K. pneumoniae isolate 51,048, broth microdilution, 24 h 37°C, OD620, 50% growth inhibition
  MIC50: >100 µM
[4]; K. pneumoniae isolate 51,048, plated on agar 18 h 37°C, 99.9% reduction
  MBC: >100 µM
[5]; E. faecium isolate 1,225, broth microdilution, 24 h 37°C, OD620, 50% growth inhibition
  MIC50: >100 µM
[5]; E. faecium isolate 1,225, plated on agar 18 h 37°C, 99.9% reduction
  MBC: >100 µM
[6]; S. aureus isolate 48,575, broth microdilution, 24 h 37°C, OD620, 50% growth inhibition
  MIC50: 3.7 µM
[6]; S. aureus isolate 48,575, plated on agar 18 h 37°C, 99.9% reduction
  MBC: >100 µM
[7]; E. faecium isolate 1,461, broth microdilution, 24 h 37°C, OD620, 50% growth inhibition
  MIC50: >100 µM
[7]; E. faecium isolate 1,461, plated on agar 18 h 37°C, 99.9% reduction
  MBC: >100 µM
[8]; K. pneumoniae isolate 50,181, broth microdilution, 24 h 37°C, OD620, 50% growth inhibition
  MIC50: >100 µM
[8]; K. pneumoniae isolate 50,181, plated on agar 18 h 37°C, 99.9% reduction
  MBC: >100 µM
[9]; P. aeruginosa isolate 48,221, broth microdilution, 24 h 37°C, OD620, 50% growth inhibition
  MIC50: >100 µM
[9]; P. aeruginosa isolate 48,221, plated on agar 18 h 37°C, 99.9% reduction
  MBC: >100 µM
[10]; S. aureus isolate 43,337, broth microdilution, 24 h 37°C, OD620, 50% growth inhibition
  MIC50: 3.7 µM
[10]; S. aureus isolate 43,337, plated on agar 18 h 37°C, 99.9% reduction
  MBC: >100 µM
[11]; K. pneumoniae isolate 50,424, broth microdilution, 24 h 37°C, OD620, 50% growth inhibition
  MIC50: 11.3 µM
[11]; K. pneumoniae isolate 50,424, plated on agar 18 h 37°C, 99.9% reduction
  MBC: >100 µM
[12]; S. aureus isolate 52,013, broth microdilution, 24 h 37°C, OD620, 50% growth inhibition
  MIC50: 5.1 µM
[12]; S. aureus isolate 52,013, plated on agar 18 h 37°C, 99.9% reduction
  MBC: >100 µM
[13]; S. aureus isolate 43,062, broth microdilution, 24 h 37°C, OD620, 50% growth inhibition
  MIC50: 5.1 µM
[13]; S. aureus isolate 43,062, plated on agar 18 h 37°C, 99.9% reduction
  MBC: >100 µM
[14]; P. aeruginosa isolate 48,220, broth microdilution, 24 h 37°C, OD620, 50% growth inhibition
  MIC50: >100 µM
[14]; P. aeruginosa isolate 48,220, plated on agar 18 h 37°C, 99.9% reduction
  MBC: >100 µM
[15]; P. aeruginosa isolate 48,526, broth microdilution, 24 h 37°C, OD620, 50% growth inhibition
  MIC50: >100 µM
[15]; P. aeruginosa isolate 48,526, plated on agar 18 h 37°C, 99.9% reduction
  MBC: >100 µM

## N=C(N)NCCC[C@H](NC(=O)[C@H](Cc1c[nH]c2ccccc12)NC(=O)[C@H](CCC(N)=O)NC(=O)[C@H](Cc1c[nH]c2ccccc12)NC(=O)[C@H](CCCNC(=N)N)NC(=O)[C@@H](N)CCCNC(=N)N)C(=O)NCCCC[C@H](NC(=O)[C@H](CCCNC(=N)N)NC(=O)[C@H](Cc1c[nH]c2ccccc12)NC(=O)[C@H](CCC(N)=O)NC(=O)[C@H](Cc1c[nH]c2ccccc12)NC(=O)[C@H](CCCNC(=N)N)NC(=O)[C@@H](N)CCCNC(=N)N)C(=O)NCCCCCC(N)=O [LfcinB (20–25)2] (I: H-RRWQWRK[Ahx]-NH2 / II: H-RRWQWR; amide I:7-II:C; N-terminus assumed)
[16]
  Gm, geometric mean of MIC50 values: 16.8 µM
[16]; Gram-negative clinical isolates
  Fold (GM peptide / GM tetrameric peptide): 1.7
[1]; clinical isolate 550, 18 h
  MBC: >100 µM
[1]; clinical isolate 550, 24 h
  MIC50: >100 µM
[2]; clinical isolate 1,462, 18 h
  MBC: >100 µM
[2]; clinical isolate 1,462, 24 h
  MIC50: 49.8 µM (≈ 109 µg/mL)
[3]; clinical isolate 48,577, 18 h
  MBC: 50.0 µM (≈ 110 µg/mL)
[3]; clinical isolate 48,577, 24 h
  MIC50: 12.9 µM (≈ 28.3 µg/mL)
[4]; clinical isolate 51,048, 18 h
  MBC: 100.0 µM (≈ 220 µg/mL)
[4]; clinical isolate 51,048, 24 h
  MIC50: 5.7 µM (≈ 12.5 µg/mL)
[5]; clinical isolate 1,225, 18 h
  MBC: >100 µM
[5]; clinical isolate 1,225, 24 h
  MIC50: >100 µM
[6]; clinical isolate 48,575, 18 h
  MBC: 25.0 µM (≈ 54.9 µg/mL)
[6]; clinical isolate 48,575, 24 h
  MIC50: 13.4 µM (≈ 29.4 µg/mL)
[7]; clinical isolate 1,461, 18 h
  MBC: >100 µM
[7]; clinical isolate 1,461, 24 h
  MIC50: >100 µM
[8]; clinical isolate 50,181, 18 h
  MBC: 100.0 µM (≈ 220 µg/mL)
[8]; clinical isolate 50,181, 24 h
  MIC50: 6.6 µM (≈ 14.5 µg/mL)
[9]; clinical isolate 48,221, 18 h
  MBC: >100 µM
[9]; clinical isolate 48,221, 24 h
  MIC50: 64.2 µM (≈ 141 µg/mL)
[10]; clinical isolate 43,337, 18 h
  MBC: 25.0 µM (≈ 54.9 µg/mL)
[10]; clinical isolate 43,337, 24 h
  MIC50: 13.5 µM (≈ 29.7 µg/mL)
[11]; clinical isolate 50,424, 18 h
  MBC: >100 µM
[11]; clinical isolate 50,424, 24 h
  MIC50: 5.8 µM (≈ 12.7 µg/mL)
[12]; clinical isolate 52,013, 18 h
  MBC: 25.0 µM (≈ 54.9 µg/mL)
[12]; clinical isolate 52,013, 24 h
  MIC50: 12.6 µM (≈ 27.7 µg/mL)
[13]; clinical isolate 43,062, 18 h
  MBC: 50.0 µM (≈ 110 µg/mL)
[13]; clinical isolate 43,062, 24 h
  MIC50: 13.5 µM (≈ 29.7 µg/mL)
[14]; clinical isolate 48,220, 18 h
  MBC: 50.0 µM (≈ 110 µg/mL)
[14]; clinical isolate 48,220, 24 h
  MIC50: 50.0 µM (≈ 110 µg/mL)
[15]; clinical isolate 48,526, 18 h
  MBC: >100 µM
[15]; clinical isolate 48,526, 24 h
  MIC50: 36.3 µM (≈ 79.7 µg/mL)
